Counter-ions that a name gives are not always drawn. Like-named read-outs stand apart in the source and are kept apart here.
Target: T1, leukotriene B4 specific receptor on the membrane of human neutrophils (Homo sapiens, UniProt Q15722)
T1 construct: incubating neutrophils (1×10^7 cells) with 0.1-0.2 nM ^3 H-LTB4; endogenous in cells; host or cells: human peripheral blood neutrophils (buffy coats of two blood donors)
Test: Inhibition of Binding of ^3 H-LTB4 to Peripheral Human Neutrophils
Conditions: for inhibition at 10 µM: read-out: LTB4 Binding Inhibition; for inhibition at 1 µM: drug concentration 10^-6 M
Method: The effectiveness of compounds to inhibit the binding of leukotriene B4 to a specific receptor on the membrane of human neutrophils was measured by using an adaptation of a radio-ligand binding assay developed by Goldman and Goetzl, J. Immunol., 129, 1600 (1982). Other investigators have developed similar assays (see, e.g., Kreisle, et al., J. Exp. Med., 157, 628 (1983) and Lin, et al., Prostaglandins, 28, 837 (1984)).
Cells used in the assay were isolated by standard techniques of centrifugation on Ficol-Hypaque, dextran 70 sedimentation and hypotonic lysis. The following procedure was used. Freshly-prepared buffy coat layers from two individuals were obtained from a local blood donor center. The cells were mixed and diluted to 484 ml. with phosphate buffered saline containing heparin (10 units/ml) and heat-inactivated calf serum (5%). This was divided into 20 ml. aliquots and the aliquots layered on top of Ficoll-Paque (12 ml.). The material was then centrifuged at 500 g. for 40 minutes at room temperature. The resulting upper layer of platelets and mononuclear cells was discarded. The lower layer containing erythrocytes and neutrophils was retained. Buffer was added (1 ml. per 4 ml. of lower layer) and the suspension mixed. For each milliliter of this mixture, 0.33 ml. of 6% Macrodex was added. After stirring, the cels were allowed to sediment for 1 hour at 37° C. The resulting erythrocyte pellet was discarded and the neutrophil enriched supernatant fluid centrifuged at 500 g. for 10 minutes at 4° C. Erythrocytes still present in this cell pellet were lysed by incubating the cells with 5-8 ml. ice-cold distilled water for 30-45 seconds. Subsequently, the volume was made up to 50 ml. by addition of ice-cold buffer and the cells resuspended. The suspension was then centrifuged at 300 g. for 10 minutes at 4° C. The cells were finally resuspended at a cell density of 2×10^7 cells/ml in the assay buffer. This buffer Consisted of Hanks' balanced salt solution and 0.1% ovalbumin (pH 7.3).
The radio-ligand binding assay was conducted by incubating neutrophils (1×10^7 cells) with 0.1-0.2 nM ^3 H-LTB4 (sp. act. 150-220 Curies/mmol) and test compound (1×10^-5 M and 1×10^-6 M) for 10 minutes at 4° C. The amount of bound ^3 H-LTB4 was then measured and compared with the amount bound in the absence of test compound. The assay was carried out in microcentrifuge tubes by adding first 10 μl test compound dissolved in DMSO, followed by adding 20 μl ^3 H-LTB4 diluted in assay buffer, and finally adding 500 μl of the cell suspension pension. At the end of the 10 minutes incubation, 300 μl of a mixture of dibutyl and dinonyl phthalate (7:2) were added and the tubes centrifuged for 2 minutes in a microcentrifuge. The radioactivity bound to the cell pellet was measured by scintillation spectroscopy. Appropriate corrections for nonspecific bonding of ^3 H-LTB4 were made.

[1] = drug concentration 10^-5 M, 4° C., 10 minutes

T1 sequence (Q15722 whole entry): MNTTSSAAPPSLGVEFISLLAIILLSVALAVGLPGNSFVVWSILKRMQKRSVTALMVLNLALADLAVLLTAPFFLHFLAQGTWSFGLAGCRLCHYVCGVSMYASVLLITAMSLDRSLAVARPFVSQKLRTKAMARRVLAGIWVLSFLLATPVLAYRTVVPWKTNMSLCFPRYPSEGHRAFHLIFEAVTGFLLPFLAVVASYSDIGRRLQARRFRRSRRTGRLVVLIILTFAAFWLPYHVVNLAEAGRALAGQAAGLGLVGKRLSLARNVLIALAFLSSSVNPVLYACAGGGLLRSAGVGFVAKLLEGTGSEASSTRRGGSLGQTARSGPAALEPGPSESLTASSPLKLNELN

Compound | inhibition at 10 µM [1] [%] | inhibition at 1 µM (4° C., 10 minutes) [%] | inhibition at 10 µM [%]
CC(=O)c1cc(C(C)=O)c(OCCCCC#N)cc1O [Example 16, 5-(2,4-Diacetyl-5-hydroxy-phenoxy)pentanenitrile] | 8 | -7 | 
CC(=O)c1cc(C=O)c(OCCCCC#N)cc1O [Example 18, 5-(4-Acetyl-5-hydroxy-2-formylphenoxy)-pentanenitrile] | 5 | 3 | 
C=CCc1cc(C(C)=O)c(O)cc1OCCCCCC#N [Example 21, 6-(4-Acetyl-5-hydroxy-2-allylphenoxy)-hexanenitrile] | 81 | 32 | 
C=CCc1cc(C(C)=O)c(O)cc1OCCCCCCCCC#N [Example 23, 9-(4-Aoetyl-5-hydroxy-2-allylphenoxy)-nonanenitrile] | 85 | 50 | 
C=CCc1cc(C(C)=O)c(O)cc1OCCCCCCC#N [Example 24, 7-(4-Acetyl-5-hydroxy-2-allylphenoxy)-] | 94 | 59 | 
C=CCc1cc(C(C)=O)c(O)cc1OCC#N [Example 25, (4-Acetyl-5-hydroxy-2-allylphenoxy)-acetonitrile] | 19 | 2 | 
C=CCc1cc(C(C)=O)c(O)cc1OCCCC#N [Example 26, 4-(4-Acetyl-5-hydroxy-2-allylphenoxy)-butanenitrile] | 46 | 5 | 
CC(=O)c1cc(C)c(OCCCCC#N)cc1O [Example 28, 5-(4-Acetyl-2-methyl-5-hydroxyphenoxy)-pentanenitrile] | 77 | 32 | 
CCCCCCc1cc(C(C)=O)c(O)cc1OCCCCC#N [Example 29, 5-(4-Acetyl-2-hexyl-5-hydroxyphenoxy)-pentanenitrile] | 51 | 12 | 
CCCCCc1cc(C(C)=O)c(O)cc1OCCCCC#N [Example 31, 5-(4-Acetyl-5-hydroxy-2-pentylphenoxy)-pentanenitrile] | 30 | 14 | 
C=CCc1cc(C(C)=O)c(O)cc1OCCCCCCC [Example 37, 4-(Heptyloxy)-2-hydroxy-5-allylacetophenone] | 31 | 8 | 
C=CCc1cc(C(C)=O)c(O)cc1OCCCCCC [Example 39, 4-(Hexyloxy)-2-hydroxy-5-allylacetophenone] | 50 | 9 | 
C=CCc1cc(C(C)=O)c(O)cc1OCCCC [Example 40, 4-Butoxy-2-hydroxy-5-allylacetophenone] | 31 | 8 | 
C=CCc1cc(C(C)=O)c(O)cc1OCCCCC [Example 41, 4-Pentyloxy-2-hydroxy-5-allylaceto-phenone] | 59 | 22 | 
C=CCc1cc(C(C)=O)c(O)cc1OC [Example 42, 2-Hydroxy-4-methoxy-5-allylacetophenone] | 6 | 12 | 
C=CCc1cc(C(C)=O)c(O)cc1OCCCCO [Example 44, 4-(4-Hydroxybutoxy)-5-allyl-2-huydroxy-aoetophenone] | 47 | 9 | 
C=CCCOc1cc(O)c(C(C)=O)cc1CC=C [Example 45, 4-(3-Butenyloxy)-2-hydroxy-5-allylacetophenone] | 51 | 15 | 
C=CCCCCOc1cc(O)c(C(C)=O)cc1CC=C [Example 46, 4-(5-Hexenyloxy)-2-hydroxy-5-allylacetophenone] | 72 | 26 | 
C#CCCCCOc1cc(O)c(C(C)=O)cc1CC=C [Example 57, 4-(5-Hexynyloxy)-2-hydroxy-5-allylaceto-phenone] | 73 | 29 | 

Compound | inhibition at 10 µM [1] [%] | inhibition at 1 µM (4° C., 10 minutes) [%] | inhibition at 10 µM [%]
CCc1cc(C(C)=O)c(O)cc1OCc1cccc(C(F)(F)F)c1 [Example 58, 5-Ethyl-2-hydroxy-4-(3-trifluoromethyl-benzyloxy)acetophenone] | 67 | 22 | 
C=CCc1cc(C(C)=O)c(O)cc1OCc1cccc(CC#N)c1 [Example 60, 3-[(4-Acetyl-5-hydroxy-2-allylphenoxy)-methyl]benzeneacetonitrile] | 12 | 6 | 
C=CCc1cc(C(C)=O)c(O)cc1OCCCCCCCC#N [Example 69, 8-(4-Acetyl-5-hydroxy-2-allylphenoxy)octanenitrile] | 88 | 51 | 
C=CCc1cc(C(C)=O)c(O)cc1OCCCCCCCCCCC#N [Example 70, 11-(4-Acetal-5-hydroxy-2-allylphenoxy)-undecanenitrile] | 50 | 14 | 
C=CCc1cc(C(C)=O)c(O)cc1OCc1ccc(CC#N)cc1 [Example 71, 4-[(4-Acetyl-5-hydroxy-2-allylphenoxy)-methyl]benzeneacetonitrile] | 30 | 17 | 
CCCc1cc(C(C)=O)c(O)cc1OCCCCN [Example 74, 4-(4-Aminobutoxy)-2-hydroxy-5-propylacetophenone hydrochloride] | 0 | 0 | 
C=CCc1cc(C(C)=O)c(O)cc1OCCCCN1CCOCC1 [Example 75, 2-Hydroxy-4-[4-(4-morpholino)butoxy]-5-allylacetophenone hydrochloride] | 0 | 0 | 
CCCc1cc(C(C)=O)c(O)cc1OCCCCNC(C)=O [Example 77, N-[4-(4-Acetyl-5-hydroxy-2-propylphenoxy)-butyl]acetamide] | 71 | 23 | 
C=CCc1cc(C(C)=O)c(O)cc1OCCCCCC[S+](C)[O-] (stereo not shown) [Example 79, 2-Hydroxy-4-[6-(methylsulfinyl)hexyloxy]-5-allylacetophenone] | 96 | 51 | 
C=CCc1cc(C(C)=O)c(O)cc1OCCCCCCS(C)(=O)=O [Example 80, 2-hydroxy-4-[6-(methylsulfonyl)-hexyloxy]-5-allylacetophenone] |  | 62 | 100
CCc1cc(C(C)=O)c(O)cc1OCCCCCCSC [Example 81, 2-Hydroxy-4-[6-(methylthio)hexyloxy]-5-ethylacetophenone] | 71 to 94 | 14 to 59 | 
CCc1cc(C(C)=O)c(O)cc1OCc1cccc(C(=O)O)c1 [Example 84] | 81 | 28 | 
CCc1cc(C(C)=O)c(O)cc1OCCCCCCC(=O)O [Example 85, 7-(4-Acetyl-2-ethyl-5-hydroxyphenoxy)heptanoio acid] | 86 | 37 | 
C=CCc1cc(C(C)=O)c(O)cc1OCCCCCC(=O)O [Example 86, 6-(4-Acetyl-2-allyl-5-hydroxyphenoxy)hexanoic acid] | 73 | 23 | 
CCc1cc(C(=O)CCCC(=O)O)c(O)cc1OCCCCC#N [Example 88, 5-[(4-Cyanobutoxy)-5-ethyl-2-hydroxybenzene]-5-oxopentanoic acid] | 19 | -1 | 
CCc1cc(C(=O)c2ccc(C(=O)O)cc2)c(O)cc1OCCCCC#N [Example 91, 4[4-(4-Cyanobutoxy)-5-ethyl-2-hydroxybenzoyl]benzoic acid] | 26 | 20 | 
C=CCc1cc(C(C)=O)c(O)cc1OCCCCCC(=O)OC [Example 94, 6-(4-Acetyl-5-hydroxy-2-allylphenoxy)hexanoic acid, methyl ester] | 106 | 64 | 
C=CCc1cc(C(C)=O)c(O)cc1OCCCCCC(N)=O [Example 96, 6-(4-Acetyl-5-hydroxy-2-allylphenoxy)hexanamide] | 87 | 37 | 
C=CCc1cc(C(C)=O)c(O)cc1OCCCCCC(=O)N(C)C [Example 97, 6-(4-Acetyl-5-hydroxy-2-allylphenoxy)-N,N-dimethylhexanamide] | 91 | 53 | 
